Reference: BigSolDB 2.1

NC(=O)c1ncn([C@@H]2O[C@H](CO)[C@@H](O)[C@H]2O)n1
solubility (mole fraction)
Conditions	in DMSO	in acetone	in ethanol	in formic acid	in methanol	in n-butanol	in n-propanol	in sec-butanol	in water
283.15 K	–	3.77e-05	5.95e-05	0.0483	0.000576	7.44e-05	4.57e-05	7.85e-05	0.00879
288.15 K	–	4.45e-05	8.55e-05	0.0533	0.000665	8.95e-05	5.73e-05	8.47e-05	0.0104
293.15 K	0.0532	5.43e-05	0.000117	0.0644	0.000743	0.000117	7.99e-05	9.62e-05	0.0123
298.15 K	0.0659	6.36e-05	0.000158	0.0785	0.000865	0.000149	0.000102	0.000104	0.0144
303.15 K	0.075	7.87e-05	0.000209	0.091	0.00103	0.000175	0.000131	0.000122	0.0165
308.15 K	0.0821	9.41e-05	0.000282	0.104	0.00122	0.00021	0.000161	0.000135	0.019
313.15 K	0.095	0.000114	0.000339	0.114	0.00138	0.000246	0.000194	0.000161	0.0225
318.15 K	0.11	0.000139	0.000435	0.131	0.00169	0.000288	0.000235	0.000196	0.0269
323.15 K	0.125	0.000153	0.000552	0.159	0.00194	0.000362	0.000295	0.000224	0.0305
